Patent publication US20220089575A1, “FARNESOID X RECEPTOR AGONISTS AND USES THEREOF” (Metacrine, Inc., priority 2017, published 2022)

What follows are compounds tested against T1, hFXR (Homo sapiens, UniProt Q96RI1) (assay: In Vitro FXR Assay (TK): TK-ECRE-luc reporter in transfected CV-1 cells). Details: 18 hrs, luminescence, maximum efficacy of <25% of the Fexarmine control classified as '+'.
T1 construct: expressed in transfected cells; host or cells: CV-1 cells
T1 sequence (Q96RI1 1-486): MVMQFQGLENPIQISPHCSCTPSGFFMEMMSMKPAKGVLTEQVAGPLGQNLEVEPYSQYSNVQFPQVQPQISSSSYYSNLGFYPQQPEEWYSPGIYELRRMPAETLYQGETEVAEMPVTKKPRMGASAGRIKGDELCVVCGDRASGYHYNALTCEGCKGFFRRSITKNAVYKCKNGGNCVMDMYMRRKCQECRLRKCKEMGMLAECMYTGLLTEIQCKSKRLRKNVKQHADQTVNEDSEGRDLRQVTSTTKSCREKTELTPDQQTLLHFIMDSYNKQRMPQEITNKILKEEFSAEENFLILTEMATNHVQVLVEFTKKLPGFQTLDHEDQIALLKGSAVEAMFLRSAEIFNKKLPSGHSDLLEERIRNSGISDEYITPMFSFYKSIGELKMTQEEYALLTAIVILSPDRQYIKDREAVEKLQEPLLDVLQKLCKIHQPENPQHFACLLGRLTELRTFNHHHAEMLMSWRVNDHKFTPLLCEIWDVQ
T1 sequence (P19793 1-462 partner): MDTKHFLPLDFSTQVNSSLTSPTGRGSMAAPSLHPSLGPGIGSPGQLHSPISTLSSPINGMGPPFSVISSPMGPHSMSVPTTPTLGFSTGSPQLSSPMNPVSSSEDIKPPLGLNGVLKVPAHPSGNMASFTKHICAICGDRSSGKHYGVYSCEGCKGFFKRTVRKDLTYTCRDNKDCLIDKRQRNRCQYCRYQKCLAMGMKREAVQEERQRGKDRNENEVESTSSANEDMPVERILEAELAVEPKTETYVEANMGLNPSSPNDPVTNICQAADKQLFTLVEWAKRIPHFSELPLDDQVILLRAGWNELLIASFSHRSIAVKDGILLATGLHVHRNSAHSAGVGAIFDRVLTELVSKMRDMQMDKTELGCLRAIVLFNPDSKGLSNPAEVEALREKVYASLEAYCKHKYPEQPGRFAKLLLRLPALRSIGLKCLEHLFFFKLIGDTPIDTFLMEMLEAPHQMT
Type: cell-based
How it was run: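 Transiently transfected monkey CV-1 cells (hFXR, hRXR, TK-ECRE-luciferase, YFP control plasmid), held in stripped-serum DMEM, received compound dilutions from DMSO for 18 h at 37 °C. Activity was taken from luminescence of the cell lysates.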

Structure (SMILES)	EC50 [nM]
CNC(=O)OCC(=O)N[C@H]1CC[C@H](C(=O)N(C[C@H]2CC[C@H](c3ccc(OC)c(C)c3)CC2)c2cccc(-c3cnn(C4CC4)c3)c2)CC1 [Compound 26.04, 2-((trans-4-((3-(1-Cyclopropyl-1H-pyrazol-4-yl)phenyl)((trans-4-(4-methoxy-3-methylphenyl)cyclohexyl)methyl)carbamoyl)cyclohexyl)amino)-2-oxoethyl methylcarbamate]	≤ 250
COc1ccc([C@H]2CC[C@H](CN(c3cccc(-c4cnn(C5CC5)c4)c3)C(=O)[C@H]3CC[C@H](NC(=O)OCCO)CC3)CC2)cc1C [Compound 26.05, 2-Hydroxyethyl (trans-4-((3-(1-cyclopropyl-1H-pyrazol-4-yl)phenyl)((trans-4-(4-methoxy-3-methylphenyl)cyclohexyl)methyl)carbamoyl)cyclohexyl)carbamate]	≤ 250
COc1ccc([C@H]2CC[C@H](CN(c3cccc(-c4cnn(C5CC5)c4)c3)C(=O)[C@H]3CC[C@H](NC(=O)[C@H]4CC[C@H](O)CC4)CC3)CC2)cc1C [Compound 26.06, trans-N-(3-(1-Cyclopropyl-1H-pyrazol-4-yl)phenyl)-4-(trans-4-hydroxycyclohexanecarboxamido)-N-((trans-4-(4-methoxy-3-methylphenyl)cyclohexyl)methyl) cyclohexanecarboxamide]	≤ 250
COc1ccc(C23CCC(CN(c4cccc(-c5cnn(C6CC6)c5)c4)C(=O)[C@H]4CC[C@H](NC(C)=O)CC4)(CC2)CC3)cc1C [Compound 26.07, trans-4-Acetamido-N-(3-(1-cyclopropyl-1H-pyrazol-4-yl)phenyl)-N-((4-(4-methoxy-3-methylphenyl)bicyclo[2.2.2]octan-1-yl)methyl)cyclohexanecarboxamide]	≤ 250
COc1ccc(C23CCC(CN(c4cccc(-c5cnn(C6CC6)c5)c4)C(=O)[C@H]4CC[C@H](NC(=O)COC(C)=O)CC4)(CC2)CC3)cc1C [Compound 26.08, 2-((4-((3-(1-Cyclopropyl-1H-pyrazol-4-yl)phenyl)((4-(4-methoxy-3-methylphenyl)bicyclo[2.2.2]octan-1-yl)methyl)carbamoyl)cyclohexyl)amino)-2-oxoethyl trans-acetate]	≤ 250
COc1ccc(C23CCC(CN(c4cccc(-c5cnn(C6CC6)c5)c4)C(=O)[C@H]4CC[C@H](NC(=O)CO)CC4)(CC2)CC3)cc1C [Compound 26.09, trans-N-(3-(1-Cyclopropyl-1H-pyrazol-4-yl)phenyl)-4-(2-hydroxyacetamido)-N-((4-(4-methoxy-3-methylphenyl)bicyclo[2.2.2]octan-1-yl)methyl)cyclohexanecarboxamide]	≤ 250
COc1ccc([C@H]2CC[C@H](CN(c3cccc(-c4cnn(C(C)C)c4)c3)C(=O)[C@H]3CC[C@H](NC(C)=O)CC3)CC2)cc1C [Compound 26.10, trans-4-Acetamido-N-(3-(1-isopropyl-1H-pyrazol-4-yl)phenyl)-N-((trans-4-(4-methoxy-3-methylphenyl)cyclohexyl)methyl) cyclohexanecarboxamide]	≤ 250
COc1ccc([C@H]2CC[C@H](CN(c3cccc(-c4cnn(C(C)C)c4)c3)C(=O)[C@H]3CC[C@H](NC(=O)COC(C)=O)CC3)CC2)cc1C [Compound 26.11, 2-((trans-4-((3-(1-Isopropyl-1H-pyrazol-4-yl)phenyl)((trans-4-(4-methoxy-3-methylphenyl)cyclohexyl)methyl)carbamoyl)cyclohexyl)amino)-2-oxoethyl acetate]	≤ 250
COc1ccc([C@H]2CC[C@H](CN(c3cccc(-c4cnn(C(C)C)c4)c3)C(=O)[C@H]3CC[C@H](NC(=O)CO)CC3)CC2)cc1C [Compound 26.12, trans-4-(2-Hydroxyacetamido)-N-(3-(1-isopropyl-1H-pyrazol-4-yl)phenyl)-N-((trans-4-(4-methoxy-3-methylphenyl)cyclohexyl)methyl) cyclohexanecarboxamide]	≤ 250
COc1ccc([C@H]2CC[C@H](CN(c3cccc(-c4cnn(C5CC5)c4)c3)C(=O)[C@H]3CC[C@H](CNC(C)=O)CC3)CC2)cc1C [Compound 26.13, trans-4-(Acetamidomethyl)-N-(3-(1-cyclopropyl-1H-pyrazol-4-yl)phenyl)-N-((trans-4-(4-methoxy-3-methylphenyl)cyclohexyl)methyl) cyclohexanecarboxamide]	≤ 250
COC(=O)NC[C@H]1CC[C@H](C(=O)N(C[C@H]2CC[C@H](c3ccc(OC)c(C)c3)CC2)c2cccc(-c3cnn(C4CC4)c3)c2)CC1 [Compound 26.14, Methyl ((trans-4-((3-(1-cyclopropyl-1H-pyrazol-4-yl)phenyl)((trans-4-(4-methoxy-3-methylphenyl)cyclohexyl)methyl)carbamoyl)cyclohexyl)methyl)carbamate]	≤ 250
COc1ccc([C@H]2CC[C@H](CN(c3cccc(-c4cnn(C5CC5)c4)c3)C(=O)[C@H]3CC[C@H](CNS(C)(=O)=O)CC3)CC2)cc1C [Compound 26.15, trans-N-(3-(1-Cyclopropyl-1H-pyrazol-4-yl)phenyl)-N-((trans-4-(4-methoxy-3-methylphenyl)cyclohexyl)methyl)-4-(methylsulfonamidomethyl) cyclohexanecarboxamide]	≤ 250
COc1ccc([C@H]2CC[C@H](CN(c3cccc(-c4coc(C5CC5)n4)c3)C(=O)[C@H]3CC[C@H](NC(=O)CO)CC3)CC2)cc1C [Compound 26.16, trans-N-(3-(2-Cyclopropyloxazol-4-yl)phenyl)-4-(2-hydroxyacetamido)-N-((trans-4-(4-methoxy-3-methylphenyl)cyclohexyl)methyl) cyclohexanecarboxamide]	≤ 250
COc1ccc([C@H]2CC[C@H](CN(c3cc(-c4coc(C5CC5)n4)ccn3)C(=O)[C@H]3CC[C@H](NC(=O)COC(C)=O)CC3)CC2)cc1C [Compound 26.17, 2-((trans-4-((4-(2-cyclopropyloxazol-4-yl)pyridine-2-yl)((trans-4-(4-methoxy-3-methylphenyl)cyclohexyl)methyl)carbamoyl)cyclohexyl)amino)-2-oxoethyl acetate]	≤ 250
COc1ccc([C@H]2CC[C@H](CN(c3cc(-c4coc(C5CC5)n4)ccn3)C(=O)[C@H]3CC[C@H](NC(=O)CO)CC3)CC2)cc1C [Compound 26.18, trans-N-(4-(2-Cyclopropyloxazol-4-yl)pyridin-2-yl)-4-(2-hydroxyacetamido)-N-((trans-4-(4-methoxy-3-methylphenyl)cyclohexyl)methyl) cyclohexanecarboxamide]	≤ 250
COc1ccc([C@H]2CC[C@H](CN(c3cccc(-c4coc(C5CC5)n4)c3)C(=O)[C@H]3CC[C@H](NC(C)=O)CC3)CC2)cc1C [Compound 26.19, trans-4-Acetamido-N-(3-(2-cyclopropyloxazol-4-yl)phenyl)-N-((trans-4-(4-methoxy-3-methylphenyl)cyclohexyl)methyl) cyclohexanecarboxamide]	≤ 250
COc1ccc([C@H]2CC[C@H](CN(c3cc(-c4coc(C5CC5)n4)ccn3)C(=O)[C@H]3CC[C@H](NC(C)=O)CC3)CC2)cc1C [Compound 26.20, trans-4-Acetamido-N-(4-(2-cyclopropyloxazol-4-yl)pyridine-2-yl)-N-((trans-4-(4-methoxy-3-methylphenyl)cyclohexyl)methyl) cyclohexanecarboxamide]	≤ 250
COC(=O)N[C@H]1CC[C@H](C(=O)N(C[C@H]2CC[C@H](c3ccc(OC)c(C)n3)CC2)c2cc(-c3coc(C4CC4)n3)ccn2)CC1 [Compound 26.21, Methyl (trans-4-((4-(2-cyclopropyloxazol-4-yl)pyridine-2-yl)((trans-4-(5-methoxy-6-methylpyridin-2-yl)cyclohexyl)methyl)carbamoyl)cyclohexyl)carbamate]	≤ 250
COc1ccc([C@H]2CC[C@H](CN(c3cc(-c4coc(C5CC5)n4)ccn3)C(=O)[C@H]3CC[C@H](CN)CC3)CC2)nc1C [Compound 26.22, trans-4-(Aminomethyl)-N-(4-(2-cyclopropyloxazol-4-yl)pyridin-2-yl)-N-((trans-4-(5-methoxy-6-methylpyridin-2-yl)cyclohexyl)methyl) cyclohexanecarboxamide]	≥ 1000
COc1ccc([C@H]2CC[C@H](CN(c3cccc(-c4cnn(C5CC5)c4)c3)C(=O)[C@H]3CC[C@H](OC(=O)NCCNC(C)=O)CC3)CC2)cc1C [Compound 26.23, trans-4-((3-(1-Cyclopropyl-1H-pyrazol-4-yl)phenyl)((trans-4-(4-methoxy-3-methylphenyl)cyclohexyl)methyl)carbamoyl)cyclohexyl (2-acetamidoethyl)carbamate]	≤ 250
